# Test results as given in ChEMBL document CHEMBL1150749, “Novel Cleistanthane Diterpenoids from Pogostemon auricularis” (1988).
# Assays:
# Format in all cases: functional
# Conditions in all cases: Cavia porcellus
# [1] = tested on: Ileum; assay: Inhibition of spasmogen response in guinea pig ileum at 2.5 ug/mL
# [2] = tested on: Ileum; assay: Inhibition of spasmogen response in guinea pig ileum at 5 ug/mL
# [3] = tested on: Ileum; assay: Inhibition of spasmogen response in guinea pig ileum at 10 ug/mL
compound,measurement,setting,value
C=C[C@H]1C(=C)CC[C@H]2[C@H]1[C@@H](OC(C)=O)C[C@@H]1[C@]2(C)CCC[C@@]1(C)C(=O)O,inhibition at 2.5 µg/mL,[1],10%
same,inhibition at 5 µg/mL,[2],19%
same,inhibition at 10 µg/mL,[3],69%
